pEC50: −log10 of the molar value.

By pEC50 is commonly meant the negative decadic logarithm of the EC50, by convention in mol/L.

The experiment concerns the target T1, human GPR119 (Homo sapiens, UniProt Q8TDV5).
T1 construct: expressed in transfected cells
T1 sequence (Q8TDV5 1-335): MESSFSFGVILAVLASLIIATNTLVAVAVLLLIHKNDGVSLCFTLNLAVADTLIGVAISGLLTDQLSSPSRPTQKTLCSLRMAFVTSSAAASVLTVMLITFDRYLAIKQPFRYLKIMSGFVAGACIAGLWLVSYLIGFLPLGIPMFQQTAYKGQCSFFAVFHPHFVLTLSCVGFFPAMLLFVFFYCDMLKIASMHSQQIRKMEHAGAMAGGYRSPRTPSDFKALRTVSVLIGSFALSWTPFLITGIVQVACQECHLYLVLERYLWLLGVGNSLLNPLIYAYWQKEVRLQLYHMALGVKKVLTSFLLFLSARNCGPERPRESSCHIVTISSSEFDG
The experiment in a line: Functional cellular assay measuring GPR119-mediated cAMP release (HTRF) in HEK-293 cells stably expressing recombinant GPR119. It counts as cell-based. Conditions: cell line expressing human GPR119, 30 minutes at room temperature. Here is the method: Functional Cellular Assays Measuring GPR119-mediated cAMP Release
Compounds of the present disclosure, which are agonists of GPR119, were characterized by functional assays measuring the cAMP response of HEK-293 cell lines stably expressing recombinant GPR119 from man, mouse or rat, or by using the hamster cell line HIT-T15 expressing GPR119 endogenously. The cAMP content was determined using a kit based on homogenous time-resolved fluorescence (HTRF) from Cisbio Corp. (cat. no. 62AM4PEC). For preparation, cells were split into T175 culture flasks and grown to near confluency in medium (DMEM/10% FCS for HEK-293 cells, and F-12K medium/10% horse serum/2.5% FCS for HIT-T15 cells, respectively). Medium was then removed and cells washed with PBS lacking calcium and magnesium ions, followed by proteinase treatment with accutase (Sigma-Aldrich, cat. no. A6964). Detached cells were washed and resuspended in assay buffer (1×HBSS; 20 mM HEPES, 0.1% BSA, 2 mM IBMX) and cellular density determined. They were then diluted to 400000 cells/mL and 25 μL-aliquots dispensed to the wells of 96-well plates. For measurement, 25 μL of test compound in assay buffer was added and incubated for 30 minutes at room temperature. After addition of HTRF reagents diluted in lysis buffer, the plates were incubated for 1 hour, followed by measuring the fluorescence ratio at 665 vs. 620 nm. Potency of the agonists was quantified by determining the concentrations that caused 50% of the maximal response/activation (EC50). See Table 6 for exemplary data obtained using the cell line expressing human GPR119.
(In TR-FRET formats the signal depends on donor and acceptor labels being close together.)
`CN(C)C(=O)C1CN(c2ncc(N3CC[C@@H](Oc4ccc(OCC(F)(F)F)nc4)C3=O)cn2)C1` [Compound 1-12]: the negative logarithm of the EC50 (pEC50) is 7.30.
Take `CN(C)C(=O)C1CN(c2ncc(N3CC[C@@H](Oc4ccc(C(=O)CCC(F)(F)F)cc4)C3=O)cn2)C1` [Compound 2-09]: the negative-log EC50 (pEC50) was 6.91.
To `O=C1[C@H](Oc2ccc(OCC(F)(F)F)nc2)CCN1c1cnc(N2CC(O)C2)nc1` [Compound 1-22] belongs 6.06; to `NC(=O)OC1CN(c2ncc(N3CC[C@@H](Oc4ccc(OCC(F)(F)F)nc4)C3=O)cn2)C1` [Compound 5-01], 6.34.
Turning to `O=C1[C@H](Oc2ccc(OCC(F)(F)F)nc2)CCN1c1cnc(N2CC(N3CCCC3=O)C2)nc1` [Compound 1-34], the pEC50 is 6.43.
To `CS(=O)(=O)C1CN(c2ncc(N3CC[C@@H](Oc4ccc(C(=O)C5CC5)c(F)c4)C3=O)cn2)C1` [Compound 1-39] belongs 6.75; to `CC(=O)N1CCN(C(=O)C2CN(c3ncc(N4CC[C@@H](Oc5ccc(Oc6ccc(F)cc6)nc5)C4=O)cn3)C2)CC1` [Compound 4-08], 5.89; to `CNC(=O)C1CN(c2ncc(N3CC[C@@H](Oc4ccc(Oc5ccc(F)cc5)nc4)C3=O)cn2)C1` [Compound 4-01], 5.69.
On to `C[S+]([O-])C1CN(c2ncc(N3CCC(Cc4ccc(OCC(F)(F)F)nc4)C3=O)cn2)C1` (single isomer, unassigned) [Compound 1-47], for which the negative-log EC50 (pEC50) is 5.79.
Consider `CN(C)C(=O)C1CN(c2ncc(N3CC[C@@H](Oc4ccc(C(=O)C5CC(F)(F)C5)nc4)C3=O)cn2)C1` [Compound 2-11], for which the pEC50 was 6.33.
Then `CN(C)C(=O)C1CN(c2ncc(N3CC[C@@H](Oc4ccc(-c5nccs5)cc4)C3=O)cn2)C1` [Compound 2-03], with 6.49; and `O=C1[C@H](Oc2ccc(OCC(F)(F)F)nc2)CCN1c1cnc(N2CC(n3cn[nH]c3=O)C2)nc1` [Compound 5-03], with 6.18; and `C[S+]([O-])C1CN(c2ncc(N3CC[C@@H](Oc4ccc(OCC(F)(F)F)nc4)C3=O)cn2)C1` (single isomer, unassigned) [Compound 1-25], with 6.53.
Regarding `NC(=O)C1CN(c2ccc(N3CC[C@@H](Oc4ccc(OCC(F)(F)F)nc4)C3=O)cn2)C1` [Compound 4-26], the negative logarithm of the EC50 (pEC50) was 7.00.
On to `O=C(O)C1CN(c2ccc(N3CC[C@@H](Oc4ccc(OCC5CC5)nc4)C3=O)cn2)C1` [Compound 3-03], for which the pEC50 was 5.22.
For the compound `CC(C)N(C)C(=O)C1CN(c2ncc(N3CC[C@@H](Oc4ccc(OCC(F)(F)F)nc4)C3=O)cn2)C1` [Compound 4-20], the negative-log EC50 (pEC50) is 7.09.
To `CS(=O)(=O)C1CN(c2ncc(N3CC[C@H](Oc4ccc(C(=O)C5CC5)cc4)C3=O)cn2)C1` [Compound 1-27] belongs 5.66; to `CN(C)C(=O)C1CN(c2ccc(N3CC[C@H](Oc4ccc(OCC(F)(F)F)nc4)C3=O)cn2)C1` [Compound 1-11], 6.38.
To `CN(C)C(=O)C1CN(c2ncc(N3CC[C@@H](Oc4ccc(C(=O)C5CC(F)(F)C5)cc4)C3=O)cn2)C1` [Compound 2-08] belongs 6.65; to `CN(C)C(=O)C1CN(c2ncc(N3CC[C@@H](Oc4ccc(C(=O)C5CC5)nc4)C3=O)cn2)C1` [Compound 2-04], 6.03; to `CCN(CC)C(=O)C1CN(c2ncc(N3CC[C@@H](Oc4ccc(OCC(F)(F)F)nc4)C3=O)cn2)C1` [Compound 4-14], 7.08.
Then `CN(C)C(=O)CC1CN(c2ncc(N3CC[C@@H](Oc4ccc(OCC(F)(F)F)nc4)C3=O)cn2)C1` [Compound 1-54], with 5.78; and `N#Cc1cc(N2CC[C@@H](Oc3ccc(OCC4CC4)nc3)C2=O)cnc1N1CC(O)C1` [Compound 1-01], with 7.24.
For `COC(=O)CC1CN(c2ncc(N3CC[C@@H](Oc4ccc(OCC(F)(F)F)nc4)C3=O)cn2)C1` [Compound 1-30], the pEC50 is 6.48.
On to `C[S+]([O-])C1CN(c2ncc(N3CC[C@@H](Oc4ccc(OCC(F)(F)F)nc4)C3=O)cn2)C1` (single isomer, unassigned) [Compound 1-24], for which the pEC50 was 6.47.
Take `CS(=O)(=O)C1CN(c2ncc(N3CCC(Cc4ccc(OCC(F)(F)F)nc4)C3=O)cn2)C1` (single isomer, unassigned) [Compound 1-44]: the pEC50 is 6.86.
Then `CS(=O)(=O)C1CN(c2ncc(N3CCC(Cc4ccc(C(=O)C5CC5)cc4)C3=O)cn2)C1` (centres unmarked) [Compound 1-32], with 6.71.
For the compound `CN(C)C(=O)C1CN(c2ncc(N3CC[C@@H](Oc4ccc(C(=O)C5CC5)c(F)c4)C3=O)cn2)C1` [Compound 2-07], the pEC50 was 6.89.
In the case of `CN(C)C(=O)C1CN(c2ncc(N3CC[C@@H](Oc4ccc(Oc5ccc(F)cc5)nc4)C3=O)cn2)C1` [Compound 1-23], the pEC50 was 6.72.
In the case of `CN(C)C(=O)C1CN(c2ncc(N3CC[C@@H](Oc4ccc(OCC5CC5)nc4)C3=O)cc2F)C1` [Compound 1-04], the negative-log EC50 (pEC50) was 7.15.
Then `CN(C)C(=O)C1CN(c2ncc(N3CC[C@@H](Oc4ccc(OCC(F)(F)F)nc4)C3=O)cc2C#N)C1` [Compound 1-09], with 7.19; and `C[S+]([O-])C1CN(c2ncc(N3CCC(Cc4ccc(OCC(F)(F)F)nc4)C3=O)cn2)C1` (single isomer, unassigned) [Compound 1-46], with 6.39.
To `CN(C)C(=O)C1CN(c2ncc(N3CC[C@@H](Oc4ccc(C(=O)c5ccc(F)cc5)cc4)C3=O)cn2)C1` [Compound 2-02] belongs 6.86; to `O=C1[C@H](Oc2ccc(OCC3CC3)nc2)CCN1c1cnc(N2CC(O)C2)c(F)c1` [Compound 1-02], 6.69.
To `O=C(NCCO)C1CN(c2ncc(N3CC[C@@H](Oc4ccc(Oc5ccc(F)cc5)nc4)C3=O)cn2)C1` [Compound 4-12] belongs 5.24; to `O=C(C1CN(c2ncc(N3CC[C@@H](Oc4ccc(Oc5ccc(F)cc5)nc4)C3=O)cn2)C1)N1CCCC1` [Compound 4-10], 6.36; to `C[S+]([O-])C1CN(c2ncc(N3CC[C@@H](Oc4ccc(OCC(F)(F)F)nc4)C3=O)cn2)C1` (some centres unmarked) [Compound 1-15], 6.61.
Turning to `O=C(C1CN(c2ncc(N3CC[C@@H](Oc4ccc(OCC(F)(F)F)nc4)C3=O)cn2)C1)N1CCCC1` [Compound 4-15], the negative-log EC50 (pEC50) was 7.08.
Then `CN(C)C(=O)C1CN(c2ncc(N3CC[C@@H](Oc4ccc(C(=O)C5CC5(F)F)cc4)C3=O)cn2)C1` (some centres unmarked) [Compound 2-10], with 6.67.
As for `CN(C)C(=O)C1CN(c2ncc(N3CC[C@@H](Oc4ccc(OCC5CC5)nc4)C3=O)cc2C#N)C1` [Compound 1-05], the negative-log EC50 (pEC50) is 7.21.
Turning to `CN(C)C(=O)C1CN(c2ncc(N3CC(C)(C)C(Oc4ccc(C(=O)C5CC5)nc4)C3=O)cn2)C1` (centres unmarked) [Compound 1-49], the pEC50 was 5.87.
`CC(C)S(=O)(=O)C1CN(c2ncc(N3CC[C@@H](Oc4ccc(OCC(F)(F)F)nc4)C3=O)cn2)C1` [Compound 1-37]: the negative-log EC50 (pEC50) is 7.15.
Then `[2H]C([2H])([2H])N(C(=O)C1CN(c2ncc(N3CC[C@@H](Oc4ccc(OCC(F)(F)F)nc4)C3=O)cn2)C1)C([2H])([2H])[2H]` [Compound 4-27], with 6.91.
To `CN(C)C(=O)C1CN(c2ccc(N3CC[C@@H](Oc4ccc(OCC5CC5)nc4)C3=O)cn2)C1` [Compound 1-06] belongs 6.77.
